US20160355530A1, “HEPATITIS C INHIBITORS AND USES THEREOF” (AbbVie Inc., priority 2010, published 2016)
Read-outs that look alike come from different tables or passages of the source.

Assays:
[1] = biological target: T1, HCV NS5B polymerase 1b BK strain (Hepatitis C virus genotype 1b, UniProt P26663); assay: HCV NS5B polymerase enzymatic inhibition assay, strain 1b BK; type: biochemical; details: enzyme, strain 1b BK; read-out: HCV Polymerase Strain 1b BK IC50
T1 construct: six-histidine tag; made in house; host or cells: E. coli
T1 sequence (P26663 2420-2989): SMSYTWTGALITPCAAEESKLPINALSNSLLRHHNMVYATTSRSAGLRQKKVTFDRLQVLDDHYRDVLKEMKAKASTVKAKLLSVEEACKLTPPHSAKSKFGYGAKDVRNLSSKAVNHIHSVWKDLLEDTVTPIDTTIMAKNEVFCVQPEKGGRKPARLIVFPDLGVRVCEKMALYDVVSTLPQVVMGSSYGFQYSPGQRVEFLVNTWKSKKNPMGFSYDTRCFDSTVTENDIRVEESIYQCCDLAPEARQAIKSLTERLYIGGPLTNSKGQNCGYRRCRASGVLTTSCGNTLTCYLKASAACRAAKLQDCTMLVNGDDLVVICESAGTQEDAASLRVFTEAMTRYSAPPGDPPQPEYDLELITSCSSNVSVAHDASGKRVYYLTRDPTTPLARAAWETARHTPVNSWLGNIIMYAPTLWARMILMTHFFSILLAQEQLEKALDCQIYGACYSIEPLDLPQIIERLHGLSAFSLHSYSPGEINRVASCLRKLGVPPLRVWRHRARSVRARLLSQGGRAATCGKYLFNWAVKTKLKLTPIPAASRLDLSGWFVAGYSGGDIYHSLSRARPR
In short: (§1)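 Recombinant NS5B (residues 1–570, His-tagged, E. coli-expressed) copied 5 nM of a 2.1 kb HCV 1b negative-strand 3′-end RNA template with 20 μM CTP, 20 μM ATP and 0.284 μM [3H]UTP for 3 h at 30 °C. Spermine-precipitated RNA was filter-captured and counted, and IC50 was fitted by nonlinear regression.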

[2] = test system: HCV 1b-Con1 subgenomic replicon; assay: Stable replicon cell culture assay (luciferase), 1b-Con1; 5% FBS, optionally 40% human plasma; type: cell-based, HCV genotype 1b; details: Hepatitis C virus
[3] = test system: HCV 1a-H77 C316Y mutant subgenomic replicon; assay: Stable replicon cell culture assay (luciferase), 1a-H77-C316Y mutant; type: cell-based, HCV genotype 1a; details: for EC50: Hepatitis C virus, read-out: Stable Replicon 1a H77-C316Y 5% FBS EC50; for Stable Replicon Fold Resistance C316Y/1a: ratio of stable replicon EC50s, C316Y / 1a H77
[4] = biological target: T2, HCV NS5B polymerase 1b Rice (Hepatitis C virus genotype 1b, UniProt Q9WMX2); assay: HCV NS5B polymerase enzymatic inhibition assay, strain 1b Rice; type: biochemical, HCV genotype 1b; details: enzyme
T2 construct: six-histidine tag; made in house; host or cells: E. coli
Description: Purified HCV NS5B polymerase enzymes were used for polymerase inhibition assays. All recombinant HCV polymerases contained the first 570 amino acids of the 591 amino acid native protein sequence and a six-histidine tag at the N-terminus or C-terminus to facilitate purification by affinity chromatography. The DNA nucleotide sequence for the HCV polymerase 1b BK strain was codon optimized for expression in E. coli. A synthetic gene was prepared from a series of overlapping oligonucleotides that were filled in using a DNA polymerase and amplified by PCR. The patient isolate HCV polymerases were cloned by RT-PCR methods using HCV RNA extracted from the serum of infected subjects obtained from ProMedDx and BioCollections (genotypes 2a, 2b, 3a, and 4a). Laboratory strains were cloned from plasmid DNA (1a-H77 or 1a-H77-C316Y) or from existing replicon cells (1b Rice). In all cases the amplified DNA was cloned into a protein expression vector (typically a pET vector from Novagen) and then multiple clones were sequenced to identify one whose NS5B sequence agreed with the population sequence. This sequence-confirmed clone was then transfected into E. coli for protein expression and purification. E. coli cultures were grown to a maximum optical density (OD) of 2-3 and then induced with 0.4 mM isopropyl beta-D-thiogalactopyranoside (IPTG) and grown for 20 hours at 20° C.
Proteins were purified using nickel affinity chromatography, and additional column steps were added including, ion exchange, size exclusion, hydrophobic ion, and poly-U affinity chromatography, as needed, depending on the sample being purified. The template RNA used in the polymerase enzymatic assay was a 2.1 kb construct that corresponds to the 3′-end of an HCV genotype 1b negative strand RNA.
The reaction was initiated by the addition of 20 μM CTP, 20 μM ATP, 0.284 μM (0.5 μCi) of 5,6-[^3H] UTP, 5 nM template RNA and 0.1 U/μL RNase inhibitor (RNasin, Promega), and allowed to proceed for three hours at 30° C. The final reaction volume was 50 μL. The reaction was terminated by the addition of 50 uL of 4 mM spermine in 10 mM Tris-HCl, pH 7.5, 1 mM EDTA. The quenched reaction was allowed to incubate for at least 15 minutes at room temperature, and then the precipitated RNA was captured by filtration through a glass fiber filter (GF/B, Millipore) in a 96 well format. The filter plate was washed five times with 200 μL of 2 mM spermine, 10 mM Tris-HCl, pH 8.0, 1 mM EDTA, and two times with ethanol. After drying thoroughly in air, 30 μL of Microscint-20 scintillation cocktail (Perkin Elmer) was added to each well, and the retained cpm were determined by scintillation counting. IC50 values were determined by nonlinear regression.
% Inhibition=100*[[I]/([I]+[IC50])] equation 1
V=kcat[S]/2(Km+[S])*(sqrt((IC50+I−E)̂2+(4*IC50*E))−(IC50+I−E)) equation 2

[5] = test system: chimeric replicon with genotype 3a NS5B; assay: microbe, parasite or virus in culture; type: cell-based, HCV genotype 3a; details: Hepatitis C virus, read-out: 3a chimera 5% FBS EC50
[6] = test system: chimeric replicon with genotype 2b NS5B; assay: microbe, parasite or virus in culture; type: cell-based, HCV genotype 2b; details: Hepatitis C virus, read-out: 2b chimera 5% FBS EC50
[7] = test system: chimeric replicon with genotype 4a NS5B; assay: microbe, parasite or virus in culture; type: cell-based, HCV genotype 4a; details: Hepatitis C virus, read-out: 4a chimera 5% FBS EC50
[8] = biological target: T3, HCV NS5B polymerase 1a-H77-C316Y (Hepatitis C virus genotype 1a, UniProt P27958, C2736Y); assay: biochemical; design: species or system HCV genotype 1a
T3 construct: six-histidine tag; made in house; host or cells: E. coli
T3 sequence (P27958 2421-2990 C2736Y): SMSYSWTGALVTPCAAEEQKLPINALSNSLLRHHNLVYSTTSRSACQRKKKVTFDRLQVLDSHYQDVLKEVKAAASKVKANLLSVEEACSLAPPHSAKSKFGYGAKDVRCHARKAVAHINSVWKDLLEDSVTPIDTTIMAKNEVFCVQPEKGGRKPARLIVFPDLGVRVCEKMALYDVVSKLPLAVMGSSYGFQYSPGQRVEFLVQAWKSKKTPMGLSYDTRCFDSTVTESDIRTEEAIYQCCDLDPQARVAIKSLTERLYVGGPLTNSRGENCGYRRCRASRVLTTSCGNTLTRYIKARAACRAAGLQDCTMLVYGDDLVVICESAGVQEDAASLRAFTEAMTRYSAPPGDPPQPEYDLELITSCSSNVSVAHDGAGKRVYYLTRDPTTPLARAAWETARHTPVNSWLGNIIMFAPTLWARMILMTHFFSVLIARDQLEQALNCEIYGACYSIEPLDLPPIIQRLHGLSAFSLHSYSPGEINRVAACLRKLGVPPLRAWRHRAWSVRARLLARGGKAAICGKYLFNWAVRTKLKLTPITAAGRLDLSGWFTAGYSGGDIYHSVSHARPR
In short: as §1

[9] = biological target: T4, HCV NS5B polymerase 1a-H77 (Hepatitis C virus genotype 1a, UniProt P27958); assay: biochemical; design: species or system HCV genotype 1a; details: enzyme, strain 1a H77; read-out: HCV Polymerase Strain 1a H77 IC50
T4 construct: six-histidine tag; made in house; host or cells: E. coli
T4 sequence (P27958 2421-2990): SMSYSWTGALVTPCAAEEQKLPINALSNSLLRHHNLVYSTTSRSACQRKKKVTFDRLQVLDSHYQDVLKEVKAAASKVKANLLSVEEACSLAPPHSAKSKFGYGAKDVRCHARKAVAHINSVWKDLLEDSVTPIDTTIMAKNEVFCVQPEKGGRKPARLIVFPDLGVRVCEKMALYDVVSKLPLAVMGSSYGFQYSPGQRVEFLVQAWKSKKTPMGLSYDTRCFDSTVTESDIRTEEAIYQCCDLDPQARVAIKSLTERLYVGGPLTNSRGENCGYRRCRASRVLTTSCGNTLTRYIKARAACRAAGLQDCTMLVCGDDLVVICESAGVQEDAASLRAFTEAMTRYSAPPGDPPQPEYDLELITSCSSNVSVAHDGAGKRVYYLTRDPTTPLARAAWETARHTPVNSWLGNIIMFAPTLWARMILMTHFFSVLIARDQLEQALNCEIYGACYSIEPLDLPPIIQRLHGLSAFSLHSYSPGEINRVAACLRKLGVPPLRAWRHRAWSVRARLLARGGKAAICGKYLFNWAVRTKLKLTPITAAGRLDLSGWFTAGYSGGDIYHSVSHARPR
In short: as §1

[10] = test system: HCV NS5B polymerase 1a-H77-C316Y; assay: biochemical; design: species or system HCV genotype 1a; details: ratio of enzyme IC50s, 1a H77-C316Y / 1a H77
In short: as §1

[11] = test system: HCV 1a-H77-C316Y transient subgenomic replicon in Huh-7 derived cell line; assay: microbe, parasite or virus in culture; type: cell-based, HCV genotype 1a; details: for EC50: Hepatitis C virus, Huh-7, read-out: Transient Replicon 1a H77-C316Y 5% FBS EC50; for Transient Replicon Fold Resistance C316Y/1a: ratio of transient replicon EC50s, C316Y / 1a H77
In short: (§2)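 Subgenomic replicon RNA (no Neo gene) electroporated into Huh-7-derived cells, plated at 5×10^3 cells/well; a 4 h plate gauged transfection efficiency. Cells exposed to 3-fold compound dilutions (0.5% DMSO) for 4 days at 37° C, then lysed for luciferase readout; EC50 calculated.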

[12] = test system: HCV 1a-H77 transient subgenomic replicon in Huh-7 derived cell line; assay: microbe, parasite or virus in culture; type: cell-based, HCV genotype 1a; details: Hepatitis C virus, Huh-7; transient replicon, 5% FBS; read-out: Transient Replicon 1a H77 5% FBS EC50
In short: as §2

[13] = test system: HCV 1a-H77 subgenomic replicon; assay: microbe, parasite or virus in culture; type: cell-based, HCV genotype 1a; details: Hepatitis C virus, stable replicon
[14] = test system: chimeric replicon with 2a-J6CF-derived NS5B; assay: microbe, parasite or virus in culture; type: cell-based, HCV genotype 2a; details: Hepatitis C virus, read-out: 2a chimera 5% FBS EC50
[15] = test system: HCV 1b-BB7 subgenomic replicon; assay: microbe, parasite or virus in culture; type: cell-based, HCV genotype 1b; details: Hepatitis C virus, stable replicon
[16] = strain 1b Con1, 5% FBS + 40% human plasma, read-out: 1b Con1 5% FBS + 40% Human Plasma EC50
[17] = strain 1b Con1, 5% FBS, no human plasma, read-out: 1b Con1 5% FBS EC50
[18] = strain 1b Con1, 5% FBS, read-out: 1b Con1 5% FBS EC50
[19] = 5% FBS, absence of human plasma, read-out: Stable Replicon 1a H77 5% FBS EC50
[20] = strain 1a H77, 5% FBS + 40% human plasma, read-out: 1a H77 5% FBS + 40% Human Plasma EC50
[21] = strain 1a H77, 5% FBS, no human plasma, read-out: 1a H77 5% FBS EC50
[22] = strain 1a H77, 5% FBS, read-out: 1a H77 5% FBS EC50

Q: For `CC(C)CCN(c1cc2oc(-c3ccc(Nc4ccccc4)cc3)c(-c3ncc[nH]3)c2cc1C1CC1)S(C)(=O)=O` [Example 18, N-[2-(4-anilinophenyl)-5-cyclopropyl-3-(1H-imidazol-2-yl)-1-benzofuran-6-yl]-N-(3-methylbutyl)methanesulfonamide], which IC50 [1] is on record?
A: 85.6 nM

Q: And the EC50 [2, 16]?
A: 602 nM

Q: And the EC50 [2, 17]?
A: 9.5 nM

Q: And the EC50 [2, 18]?
A: 9.5 nM

Q: And the EC50 [3]?
A: 3.8 nM

Q: What about the “Stable Replicon Fold Resistance C316Y/1a” value [3] of the same compound?
A: 0.711 fold

Q: And the IC50 [4]?
A: 30.4 nM

Q: What about the EC50 [5] of the same compound?
A: 12.3 nM

Q: What about the EC50 [6] of the same compound?
A: 13 nM

Q: What about the EC50 [7] of the same compound?
A: 9.4 nM

Q: And the IC50 [8]?
A: 101 nM

Q: What about the IC50 [9] of the same compound?
A: 25.8 nM

Q: What about the “C316Y/1a Fold Resistance” value [10] of the same compound?
A: 4 fold

Q: And the EC50 [11]?
A: 0.3 nM

Q: What about the “Transient Replicon Fold Resistance C316Y/1a” value [11] of the same compound?
A: 0.4 fold

Q: And the EC50 [12]?
A: 0.7 nM

Q: And the EC50 [13, 19]?
A: 5.4 nM

Q: What about the EC50 [13, 20] of the same compound?
A: 234 nM

Q: And the EC50 [13, 21]?
A: 5.4 nM

Q: What about the EC50 [13, 22] of the same compound?
A: 5.4 nM

Q: `COc1ccc(-c2nn3ccc(-c4cc(C(=O)NC5(c6ccccc6)CC5)ccc4C)cc3c2C2=NOCCN2)cc1` [Example 19, 3-[3-(5,6-dihydro-4H-1,2,4-oxadiazin-3-yl)-2-(4-methoxyphenyl)pyrazolo[1,5-a]pyridin-5-yl]-4-methyl-N-(1-phenylcyclopropyl)benzamide] was tested. Which IC50 [1] did it give?
A: 150 nM

Q: And the EC50 [2, 16]?
A: 86.8 nM

Q: And the EC50 [2, 17]?
A: 6.7 nM

Q: What about the EC50 [2, 18] of the same compound?
A: 6.7 nM

Q: And the EC50 [3]?
A: 1320 nM

Q: And the “Stable Replicon Fold Resistance C316Y/1a” value [3]?
A: 41.0 fold

Q: And the IC50 [4]?
A: 7.2 nM

Q: And the EC50 [7]?
A: 20.2 nM

Q: What about the IC50 [8] of the same compound?
A: 457 nM

Q: What about the IC50 [9] of the same compound?
A: 4 nM

Q: What about the “C316Y/1a Fold Resistance” value [10] of the same compound?
A: 115 fold

Q: And the EC50 [14]?
A: 140 nM

Q: And the EC50 [13, 19]?
A: 33.2 nM

Q: And the EC50 [13, 20]?
A: 444 nM

Q: And the EC50 [13, 21]?
A: 33.2 nM

Q: And the EC50 [13, 22]?
A: 33.2 nM

Q: Which results are given for `CC1NC(c2c(-c3ccc(F)cc3)oc3cc(N(CCO)S(C)(=O)=O)c(C4CC4)cc23)=NO1` (stereo not shown) [Example 158, N-[5-cyclopropyl-2-(4-fluorophenyl)-3-(5-methyl-4,5-dihydro-1,2,4-oxadiazol-3-yl)-1-benzofuran-6-yl]-N-(2-hydroxyethyl)methanesulfonamide]?
A: IC50 [1]: 36.3 nM; EC50 ([15]; strain 1b BB7, 5% FBS + 40% human plasma, read-out: 1b BB7 5% FBS + 40% Human Plasma EC50): 335 nM; EC50 ([15]; strain 1b BB7, 5% FBS, no human plasma, read-out: 1b BB7 5% FBS EC50): 23.5 nM; EC50 ([15]; strain 1b BB7, 5% FBS, read-out: 1b BB7 5% FBS EC50): 23.5 nM; EC50 [3]: 1150 nM; Stable Replicon Fold Resistance C316Y/1a [3]: 49.4 fold; EC50 [5]: 43 nM; EC50 [6]: 205 nM; EC50 [7]: 176 nM; IC50 [8]: 160 nM; IC50 [9]: 8.3 nM; C316Y/1a Fold Resistance [10]: 19 fold; EC50 [14]: 302 nM; EC50 [11]: 304 nM; Transient Replicon Fold Resistance C316Y/1a [11]: 16 fold; EC50 [12]: 19.5 nM; EC50 [13, 19]: 23.3 nM; EC50 [13, 20]: 260 nM; EC50 [13, 21]: 23.3 nM; EC50 [13, 22]: 23.3 nM

Q: For `C=C(c1ccccc1)c1ccc(-c2oc3cc(N(CCC(C)C)S(C)(=O)=O)c(C4CC4)cc3c2-c2ncc[nH]2)cc1` [Example 167, N-{5-cyclopropyl-3-(1H-imidazol-2-yl)-2-[4-(1-phenylvinyl)phenyl]-1-benzofuran-6-yl}-N-(3-methylbutyl)methanesulfonamide], which IC50 [1] is on record?
A: 160 nM

Q: What about the IC50 [4] of the same compound?
A: 61.6 nM

Q: What about the IC50 [8] of the same compound?
A: 7900 nM

Q: And the IC50 [9]?
A: 49.2 nM

Q: And the “C316Y/1a Fold Resistance” value [10]?
A: 161 fold

Q: And the EC50 [11]?
A: 6.11 nM

Q: What about the “Transient Replicon Fold Resistance C316Y/1a” value [11] of the same compound?
A: 1 fold

Q: And the EC50 [12]?
A: 8.1 nM

Q: What does the source list for `COc1ccc(-c2nn3ccc(-c4cc(C(=O)NC5(c6ccccc6)CC5)ccc4C)cc3c2-c2ncc[nH]2)cc1` [Example 191, 3-[3-(1H-imidazol-2-yl)-2-(4-methoxyphenyl)pyrazolo[1,5-a]pyridin-5-yl]-4-methyl-N-(1-phenylcyclopropyl)benzamide]?
A: IC50 [4]: 8.4 nM; EC50 [7]: 17.6 nM; IC50 [9]: 12 nM
